One test addresses T1, Human M4 (Homo sapiens, UniProt P08173).
T1 construct: expressed in transfected cells; host or cells: CHO-K1 (ATCC), stably expressing M4 and Gqi5
T1 sequence (P08173 1-479): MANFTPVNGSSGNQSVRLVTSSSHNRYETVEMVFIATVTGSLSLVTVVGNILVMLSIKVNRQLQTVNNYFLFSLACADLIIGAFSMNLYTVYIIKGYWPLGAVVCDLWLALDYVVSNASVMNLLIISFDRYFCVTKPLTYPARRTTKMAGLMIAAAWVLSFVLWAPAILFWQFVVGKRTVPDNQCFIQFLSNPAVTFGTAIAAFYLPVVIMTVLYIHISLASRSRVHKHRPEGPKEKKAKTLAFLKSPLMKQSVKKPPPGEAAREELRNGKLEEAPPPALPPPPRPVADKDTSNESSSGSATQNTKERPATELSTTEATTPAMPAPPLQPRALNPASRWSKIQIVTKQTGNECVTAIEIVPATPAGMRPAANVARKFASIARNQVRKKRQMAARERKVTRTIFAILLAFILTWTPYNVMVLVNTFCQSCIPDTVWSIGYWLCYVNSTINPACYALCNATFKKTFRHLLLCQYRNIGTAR
Description: mAChR M4 cell-based functional calcium flux assay (human M4/Gqi5/CHO cells). The note with it: for Emin (human M4): % ACh maximum at 30 μM; for IC50: decrease of the response to an EC80 concentration of acetylcholine. The procedure: (§1) Human, rat, or mouse M4. cDNA, along with the chimeric G protein Gqi5, were transfected into Chinese hamster ovary (CHO-K1) cells purchased from the American Type Culture Collection using Lipofectamine2000. M4/Gqi5/CHO cells were grown in Ham's F-12 medium containing 10% heat-inactivated fetal bovine serum (FBS), 20 mM HEPES, 500 μg/mL G418 sulfate, and 200 μg/mL Hygromycin B.
(§2) For high throughput measurement of agonist-evoked increases in intracellular calcium, CHO-K1 cells stably expressing muscarinic receptors were plated in growth medium lacking G418 and hygromycin at 15,000 cells/20 μL/well in Greiner 384-well black-walled, tissue culture (TC)-treated, clear-bottom plates (VWR). Cells were incubated overnight at 37° C. and 5% CO2. The next day, cells were washed using an ELX 405 (BioTek) with assay buffer; the final volume was then aspirated to 20 μL. Next, 20 μL of a 2.3 μM stock of Fluo-4/acetoxymethyl ester (Invitrogen, Carlsbad, CA), prepared as a 2.3 mM stock in DMSO and mixed in a 1:1 ratio with 10% (w/v) Pluronic F-127 and diluted in assay buffer, was added to the wells and the cell plates were incubated for 50 min at 37° C. and 5% CO2. Dye was removed by washing with the ELX 405 and the final volume was aspirated to 20 μL. Compound master plates were formatted in a 10 point concentration-response curve (CRC) format (1:3 dilutions) in 100% DMSO with a starting concentration of 10 or 1 mM using a BRAVO liquid handler (Agilent). Test compound CRCs were then transferred to daughter plates (240 nL) using the Echo acoustic plate reformatter (Labcyte, Sunnyvale, CA) and then diluted into assay buffer (40 μL) to a 2× stock using a Thermo Fisher Combi (Thermo Fisher Scientific, Waltham, MA).
(§3) Calcium flux was measured using the Functional Drug Screening System (FDSS) 6000 or 7000 (Hamamatsu Corporation, Tokyo, Japan) as an increase in the fluorescent static ratio. Compounds were applied to cells (20 μL, 2×) using the automated system of the FDSS at 2 seconds into the protocol and the data were collected at 1 Hz. At 143 s, 10 μL of an EC20 concentration of the muscarinic receptor agonist acetylcholine was added (5×), followed by the addition of 12 μL of an EC80 concentration of acetylcholine at the 268 s time point (5×). Agonist activity was analyzed as a concentration-dependent increase in calcium mobilization upon compound addition. Positive allosteric modulator activity was analyzed as a concentration-dependent increase in the EC20 acetylcholine response. Antagonist activity was analyzed as a concentration-dependent decrease in the EC80 acetylcholine response; for the purposes of the tables herein, an IC50 (inhibitory concentration 50) was calculated as a concentration-dependent decrease of the response elicited by an EC80 concentration of acetylcholine. Concentration-response curves were generated using a four-parameter logistical equation in XLFit curve fitting software (IDBS, Bridgewater, NJ) for Excel (Microsoft, Redmond, WA) or Prism (GraphPad Software, Inc., San Diego, CA) or the Dotmatics software platform (Dotmatics, Bishop's Stortford, UK).
(§4) Compounds were synthesized as described above. Activity (IC50 and Emin) was determined in the mAChR M4 cell-based functional assay as described above and the data are shown in Table 2 and Table 3. The compound number corresponds to the compound numbers used in the examples and Tables 1 and 1.1.

A further test concerns the target T2, Rat M4 (Rattus norvegicus, UniProt P08485).
T2 construct: expressed in transfected cells; host or cells: CHO-K1 (ATCC), stably expressing M4 and Gqi5
T2 sequence (P08485 1-478): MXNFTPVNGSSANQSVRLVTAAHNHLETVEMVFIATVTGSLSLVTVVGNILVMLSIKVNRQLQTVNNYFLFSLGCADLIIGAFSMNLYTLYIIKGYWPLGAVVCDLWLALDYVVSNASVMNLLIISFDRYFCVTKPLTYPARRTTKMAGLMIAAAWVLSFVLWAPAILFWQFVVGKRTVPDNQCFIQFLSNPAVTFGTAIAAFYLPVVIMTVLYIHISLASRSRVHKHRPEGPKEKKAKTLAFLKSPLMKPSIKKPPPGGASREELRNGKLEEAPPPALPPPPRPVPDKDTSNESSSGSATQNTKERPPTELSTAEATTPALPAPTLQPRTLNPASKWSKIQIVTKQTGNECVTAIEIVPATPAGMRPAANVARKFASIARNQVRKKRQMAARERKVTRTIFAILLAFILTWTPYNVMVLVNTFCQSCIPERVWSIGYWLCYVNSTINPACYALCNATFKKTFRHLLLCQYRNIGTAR
The test can be described thus: mAChR M4 cell-based functional calcium flux assay (rat M4/Gqi5/CHO cells). The note with it: for Emin (rat M4): % ACh maximum at 30 μM. The procedure:
as §1, §2, §3, §4

The mark [1] stands for this setting: decrease of the response to an EC80 concentration of acetylcholine.

Consider `Fc1ccc(Cl)c(-c2ccc(NCC3CC34CCN(Cc3ccccc3)CC4)nn2)c1` (stereo not drawn) [Compound 101, N-[(6-benzyl-6-azaspiro[2.5]octan-2-yl)methyl]-6-(2-chloro-5-fluoro-phenyl)pyridazin-3-amine], for which, at Human M4, the “Emin (human M4)” value was 3% and the IC50 came out at 0.0692 µM.

For the compound `c1cc(N2CCOCC2)nnc1NCC1CC12CCN(CC1CCOCC1)CC2` (stereo not drawn) [Compound 85, 6-morpholino-N-[[6-(tetrahydropyran-4-ylmethyl)-6-azaspiro[2.5]octan-2-yl]methyl]pyridazin-3-amine], on Human M4, the “Emin (human M4)” value amounted to 10% and the IC50 was determined as 1.2 µM.

For `Cc1cnn(C)c1-c1ccc(NCC2CC23CCN(CC2CCOCC2)CC3)nn1` (stereo not drawn) [Compound 74, 6-(2,4-dimethylpyrazol-3-yl)-N-[[6-(tetrahydropyran-4-ylmethyl)-6-azaspiro[2.5]octan-2-yl]methyl]pyridazin-3-amine], at Rat M4, the “Emin (rat M4)” value worked out at 29.9%. Besides, on Rat M4 (cells printed in μM, decrease of the EC80 acetylcholine response), the IC50 was > 10 µM.

For the compound `N#Cc1ccccc1CN1CCC2(CC1)CC2CNc1ccc(-c2cc(F)ccc2Cl)nn1` (stereo not drawn) [Compound 98, 2-[[2-[[[6-(2-chloro-5-fluoro-phenyl)pyridazin-3-yl]amino]methyl]-6-azaspiro[2.5]octan-6-yl]methyl]benzonitrile], on Human M4, the “Emin (human M4)” value was determined as 5% and the IC50 is 0.524 µM.

Take `Cc1nn(C)cc1-c1nnc(NCC2CC23CCN(CCC(C)(C)C)CC3)c2ccccc12` (stereo not drawn) [Compound 95, N-[[6-(3,3-dimethylbutyl)-6-azaspiro[2.5]octan-2-yl]methyl]-4-(1,3-dimethylpyrazol-4-yl)phthalazin-1-amine]: at Human M4, the “Emin (human M4)” value came out at 5% and the IC50 was found to be 0.00255 µM.

With `Cc1nn(C)cc1-c1ccc(NCC2CC23CCN(CC2CC4C=CC2C4)CC3)nn1` (stereo not drawn) [Compound 9, N-[[6-(5-bicyclo[2.2.1]hept-2-enylmethyl)-6-azaspiro[2.5]octan-2-yl]methyl]-6-(1,3-dimethylpyrazol-4-yl)pyridazin-3-amine], on Rat M4, the “Emin (rat M4)” value stood at 3.98%. In addition, the IC50 on Rat M4 (setting [1]) was 0.012 µM.

Regarding `Cc1nn(C)cc1-c1nnc(NCC2CC23CCN(CC2CC4C=CC2C4)CC3)c2ccccc12` (stereo not drawn) [Compound 96, N-[[6-(5-bicyclo[2.2.1]hept-2-enylmethyl)-6-azaspiro[2.5]octan-2-yl]methyl]-4-(1,3-dimethylpyrazol-4-yl)phthalazin-1-amine], at Human M4, the “Emin (human M4)” value is 5% and the IC50 amounted to 0.00296 µM.

Regarding `CC(=O)Nc1ccc(-c2ccc(NC[C@H]3CC34CCN(CC3CCCCC3)CC4)nn2)cc1` [Compound 125, N-[4-[6-[[(2S)-6-(cyclohexylmethyl)-6-azaspiro[2.5]octan-2-yl]methylamino]pyridazin-3-yl]phenyl]acetamide], on Human M4, the “Emin (human M4)” value worked out at 4% and the IC50 came out at 0.112 µM.

`Cc1nn(C)cc1-c1nnc(NCC2CC23CCN(CC2CCOCC2)CC3)c2ccccc12` (stereo not drawn) [Compound 93, 4-(1,3-dimethylpyrazol-4-yl)-N-[[6-(tetrahydropyran-4-ylmethyl)-6-azaspiro[2.5]octan-2-yl]methyl]phthalazin-1-amine]: at Human M4, the “Emin (human M4)” value was found to be 9% and the IC50 came to 0.00461 µM.

Turning to `Fc1ccc(Cl)c(-c2ccc(NC[C@@H]3CC34CCN(Cc3ccccc3)CC4)nn2)c1` [Compound 112, N-[[(2R)-6-benzyl-6-azaspiro[2.5]octan-2-yl]methyl]-6-(2-chloro-5-fluoro-phenyl)pyridazin-3-amine], at Human M4, the “Emin (human M4)” value came out at 2% and the IC50 came to 0.127 µM.

With `Fc1ccc(Cl)c(-c2ccc(NCC3CC34CCN(Cc3ccccc3F)CC4)nn2)c1` (stereo not drawn) [Compound 100, 6-(2-chloro-5-fluoro-phenyl)-N-[[6-[(2-fluorophenyl)methyl]-6-azaspiro[2.5]octan-2-yl]methyl]pyridazin-3-amine], at Human M4, the “Emin (human M4)” value is 2% and the IC50 was 0.0882 µM.

`CC(C)(C)CCN1CCC2(CC1)CC2CNc1ccc(C2=CCCC2)nn1` (stereo not drawn) [Compound 90, 6-(cyclopenten-1-yl)-N-[[6-(3,3-dimethylbutyl)-6-azaspiro[2.5]octan-2-yl]methyl]pyridazin-3-amine]: on Rat M4, the “Emin (rat M4)” value is recorded as 5%. In addition, the IC50 on Rat M4 (setting [1]) came to 0.347 µM.

Turning to `Fc1ccc(Cl)c(-c2ccc(OCC3CC34CCN(CC3CCCCC3)CC4)nn2)c1` (stereo not drawn) [Compound 87, 2-[[6-(2-chloro-5-fluoro-phenyl)pyridazin-3-yl]oxymethyl]-6-(cyclohexylmethyl)-6-azaspiro[2.5]octane], the “Emin (rat M4)” value on Rat M4 turned out to be 3%. The IC50 at Rat M4 (setting [1]) stood at 1.05 µM.

`CC(C)(C)CCN1CCC2(CC1)CC2COc1ccc(-c2cc(F)ccc2Cl)nn1` (stereo not drawn) [Compound 77, 1-(((6-(2-chloro-5-fluorophenyl)pyridazin-3-yl)oxy)methyl)-6-(3,3-dimethylbutyl)-6-azaspiro[2.5]octane]: on Rat M4, the “Emin (rat M4)” value came out at 3%. In addition, the IC50 at Rat M4 (setting [1]) is 0.288 µM.

Regarding `Cc1nn(C)cc1-c1nnc(NCC2CC23CCN(CC2CCCCC2)CC3)c2ccccc12` (stereo not drawn) [Compound 94, N-[[6-(cyclohexylmethyl)-6-azaspiro[2.5]octan-2-yl]methyl]-4-(1,3-dimethylpyrazol-4-yl)phthalazin-1-amine], at Human M4, the “Emin (human M4)” value worked out at 5% and the IC50 was found to be 0.0161 µM.

As for `Fc1ccc(CN2CCC3(CC2)CC3CNc2ccc(-c3cc(F)ccc3Cl)nn2)cc1` (stereo not drawn) [Compound 99, 6-(2-chloro-5-fluoro-phenyl)-N-[[6-[(4-fluorophenyl)methyl]-6-azaspiro[2.5]octan-2-yl]methyl]pyridazin-3-amine], at Human M4, the “Emin (human M4)” value is 3% and the IC50 was found to be 0.0882 µM.

Regarding `Fc1cccc(CN2CCC3(CC2)CC3CNc2ccc(-c3cc(F)ccc3Cl)nn2)c1` (stereo not drawn) [Compound 97, 6-(2-chloro-5-fluoro-phenyl)-N-[[6-[(3-fluorophenyl)methyl]-6-azaspiro[2.5]octan-2-yl]methyl]pyridazin-3-amine], on Human M4, the “Emin (human M4)” value came out at 3% and the IC50 was found to be 0.0833 µM.

As for `Fc1ccc(Cl)c(-c2ccc(NC[C@@H]3CC34CCN(Cc3ccccn3)CC4)nn2)c1` [Compound 113, 6-(2-chloro-5-fluoro-phenyl)-N-[[(2R)-6-(2-pyridylmethyl)-6-azaspiro[2.5]octan-2-yl]methyl]pyridazin-3-amine], on Human M4, the “Emin (human M4)” value came out at 2% and the IC50 stood at 0.0883 µM.

Source of the values: patent US12600726B2, “Antagonists of the muscarinic acetylcholine receptor M4” (Vanderbilt University, priority 2017, dated 2026).
